Measurements taken from patent publication US12441730B2, “PRMT5 inhibitors” (Merck Sharp & Dohme LLC, priority 2019, dated 2025).
Like-named read-outs stand apart in the source and are kept apart here.

Columns and labels:
[1] = molecular target: T1, Full-length (FL)-PRMT5-MEP50 enzyme complex (Homo sapiens, UniProt O14744); assay: PRMT5-MEP50 Enzyme Methylation Assay (Version B); format: biochemical
T1 construct: Full-length (FL)-PRMT5-MEP50 enzyme complex (recombinant proteins from baculovirus-transfected Sf21 cells: FL-PRMT5; MW=73837 kDa and FL-MEP50; MW=38614); made in house; host or cells: baculovirus-transfected Sf21 cells
Method: PRMT5-MEP50 Enzyme Methylation Assay (Version B)
PRMT5/MEP50 biochemical assay is a direct measurement of the methylation activity of the enzyme complex on a short peptide substrate derived from the N-terminus of H4 histone. Methylation experiment was performed with recombinant protein. The assessment of inhibitory effect (IC50) of small molecules was measured by the effectiveness of the compounds to inhibit this reaction.
In this assay, the potency (IC50) of each compound was determined from a twenty-point (1:2 serial dilution; top compound concentration of 100000 nM) titration curve using the following outlined procedure. To each well of a white ProxiPlus 384 well-plate, 100 nL of compound (1% DMSO in final assay volume of 10 μL) was dispensed, followed by the addition of 8 μL of 1× assay buffer (50 mM Bicine pH 8.0, 1 mM DTT, 0.004% Tween20, 0.01% BSA) containing 0.5 nM of Full-length (FL)-PRMT5-MEP50 enzyme complex (recombinant proteins from baculovirus-transfected Sf21 cells: FL-PRMT5; MW=[…] and FL-MEP50; MW=38614). Plates were sealed and placed in a 37° C. humidified chamber for 30 minutes pre-incubation with compounds. Subsequently, each reaction was initiated by the addition of 2 μL 1× assay buffer containing 75 nM biotinylated H4R3 (Me1) peptide, and 15 μM S-(5′-Adenosyl)-L-Methionine Chloride (SAM). The final reaction in each well of 10 μL consists of 0.5 nM PRMT5-MEP50, 75 nM biotinylated-peptide, and 15 μM SAM. Methylation reactions were allowed to proceed for 150 minutes in a sealed plate at 37° C. Reactions were immediately quenched by the addition of 1 μL of 10% formic acid. Plates were then frozen and shipped to SAMDI™ Tech Inc. to determine the percent conversion from […]. EC50 values were determined by non-linear regression according to models for either sigmoidal (4 parameters) or biphasic (7 parameters) dose-response curves.

[2] = test system: symmetric dimethylation of arginine (SDMA) of PRMT5 substrates in MCF-7 cells; assay: PRMT5 Cell Target Engagement (TE) Assay; format: cell-based; conditions: 3 days treatment, SDMA high content imaging
How it was run: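 MCF-7 cells treated 3 days at 37 °C with a ten-point 1:3 titration from 10000 nM. Fixed cells immunostained with anti-SDMA and Alexa488 secondary; nuclear fluorescence quantified by high-content imaging versus DMSO wells, with IC50 from a 4-parameter fit.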

[3] = second value of 7 parameter biphasic fit, read-out: Enzyme Methylation Assay Version B (EC50 2)
[4] = single EC50 = 4 parameter single site sigmoidal fit, EC50 1 = first value of 7 parameter biphasic fit, read-out: Enzyme Methylation Assay Version B (EC50 or EC50 1)

T1 sequence (O14744 whole entry): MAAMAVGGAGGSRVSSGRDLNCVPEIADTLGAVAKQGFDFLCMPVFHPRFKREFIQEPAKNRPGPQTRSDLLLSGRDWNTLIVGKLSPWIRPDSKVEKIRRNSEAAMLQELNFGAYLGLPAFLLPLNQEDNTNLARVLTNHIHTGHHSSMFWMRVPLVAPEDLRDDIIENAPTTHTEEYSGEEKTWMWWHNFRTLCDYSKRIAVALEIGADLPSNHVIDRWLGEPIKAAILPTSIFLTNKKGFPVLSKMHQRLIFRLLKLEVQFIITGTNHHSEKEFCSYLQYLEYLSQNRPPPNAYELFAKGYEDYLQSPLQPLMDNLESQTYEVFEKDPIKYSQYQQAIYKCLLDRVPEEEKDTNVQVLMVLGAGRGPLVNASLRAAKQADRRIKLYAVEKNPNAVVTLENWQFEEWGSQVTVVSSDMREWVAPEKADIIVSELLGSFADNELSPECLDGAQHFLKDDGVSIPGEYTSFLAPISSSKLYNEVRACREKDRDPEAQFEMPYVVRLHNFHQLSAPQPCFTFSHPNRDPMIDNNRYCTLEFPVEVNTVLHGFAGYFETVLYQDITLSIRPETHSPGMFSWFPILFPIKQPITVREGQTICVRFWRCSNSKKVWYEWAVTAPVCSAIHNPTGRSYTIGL
T1 sequence (Q9BQA1 whole entry partner): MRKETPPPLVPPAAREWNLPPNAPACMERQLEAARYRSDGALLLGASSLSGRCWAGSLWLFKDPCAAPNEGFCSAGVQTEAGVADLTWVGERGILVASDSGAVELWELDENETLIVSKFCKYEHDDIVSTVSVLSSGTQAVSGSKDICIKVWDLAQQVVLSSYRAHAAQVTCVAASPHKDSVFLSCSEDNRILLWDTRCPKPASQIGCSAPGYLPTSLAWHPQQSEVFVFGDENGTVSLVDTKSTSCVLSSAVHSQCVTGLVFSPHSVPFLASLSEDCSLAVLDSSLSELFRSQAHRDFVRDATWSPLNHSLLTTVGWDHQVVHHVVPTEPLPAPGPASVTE

| EC50 [1, 3] [µM] | EC50 [1, 4] [µM] | EC50 ([2]; Homo sapiens, MCF7, 72 h) [µM] | SMILES | EC50 [2] [µM] |
| --- | --- | --- | --- | --- |
| ≥ 100 | 0.51 | ≥ 10 | O=C(c1ccc(-c2nnc(C3CC3)o2)cc1)N1CCC2(CC1)Cc1ccccc1CN2 [Example 118, [4-(5-cyclopropyl-1,3,4-oxadiazol-2-yl)phenyl](1,4-dihydro-1′H,2H-spiro[isoquinoline-3,4′-piperidin]-1′-yl)methanone] | – |
| 1.07 | 0.00311 | – | CC(=O)N1CCC(Nc2cc(C(=O)N3CCC4(Cc5ccccc5CN4)C(O)C3)ncn2)CC1 (single isomer, unassigned) [Example 93, A diastereomer of 1-[4-({6-[(3′-hydroxy-1,4-dihydro-1′H,2H-spiro[isoquinoline-3,4′-piperidin]-1′-yl)carbonyl]-4-pyrimidinyl}amino)-1-piperidinyl]ethanone] | 0.0273 |
| 8.85 | 0.0133 | 0.797 | CC(=O)N1CCC(Nc2cc(C(=O)N3CCC4(CC3)Cc3ccccc3CN4)ccn2)CC1 [Example 174, 1-(4-((4-(1,4-dihydro-2H-spiro[isoquinoline-3,4′-piperidine]-1′-carbonyl)pyridin-2-yl)amino)piperidin-1-yl)ethan-1-one] | – |
| – | 0.206 | – | CC(=O)N1CCC(Nc2cc(C(=O)N3CCC4(Cc5ccccc5CN4)C(O)C3)ncn2)CC1 (single isomer, unassigned) [Example 90, A diastereomer of 1-[4-({6-[(3′-hydroxy-1,4-dihydro-1′H,2H-spiro[isoquinoline-3,4′-piperidin]-1′-yl)carbonyl]-4-pyrimidinyl}amino)-1-piperidinyl]ethanone] | ≥ 10 |
| 5.55 | 0.00621 | 0.488 | CC(=O)N1CCC(Nc2cc(C(=O)N3CCC4(CC3)Cc3ccc(Cl)cc3CN4)ncn2)CC1 [Example 53, 1-(4-{[6-(7-chloro-1,4-dihydro-1′H,2H-spiro[isoquinoline-3,4′-piperidine]-1′-carbonyl)pyrimidin-4-yl]amino}piperidin-1-yl)ethan-1-one] | – |
| 8.71 | 0.00331 | 0.053 | O=C(c1ccc(-c2ncnn2C2CC2)cc1Cl)N1CC[C@]2(Cc3ccccc3CN2)[C@H](O)C1 [Example 110, (2-chloro-4-(1-cyclopropyl-1H-1,2,4-triazol-5-yl)phenyl)((3R,3′R)-3′-hydroxy-1,4-dihydro-2H-spiro[isoquinoline-3,4′-piperidin]-1′-yl)methanone] | – |

| SMILES | EC50 [1, 3] [µM] | EC50 [1, 4] [µM] | EC50 ([2]; Homo sapiens, MCF7, 72 h) [µM] | EC50 [2] [µM] |
| --- | --- | --- | --- | --- |
| CCOc1cc(C(=O)N2C3CCC2COC3)ccc1C(=O)N1CCC2(Cc3ccccc3CN2)C(O)C1 (single isomer, unassigned) [Example 87, A diastereomer of {3-ethoxy-4-[(3′-hydroxy-1,4-dihydro-1′H,2H-spiro[isoquinoline-3,4′-piperidin]-1′-yl)carbonyl]phenyl}(3-oxa-8-azabicyclo[3.2.1]oct-8-yl)methanone] | 0.671 | 0.00354 | – | 0.00916 |
| CCOc1cc(C(=O)N2C3CCC2COC3)ccc1C(=O)N1CCC2(Cc3ccccc3CN2)C(O)C1 (single isomer, unassigned) [Example 88, A diastereomer of {3-ethoxy-4-[(3′-hydroxy-1,4-dihydro-1′H,2H-spiro[isoquinoline-3,4′-piperidin]-1′-yl)carbonyl]phenyl}(3-oxa-8-azabicyclo[3.2.1]oct-8-yl)methanone] | – | 0.964 | 4.29 | – |
| CCOc1cc(C(=O)N2C3CCC2COC3)ccc1C(=O)N1CCC2(Cc3ccccc3CN2)C(O)C1 (single isomer, unassigned) [Example 89, A diastereomer of {3-ethoxy-4-[(3′-hydroxy-1,4-dihydro-1′H,2H-spiro[isoquinoline-3,4′-piperidin]-1′-yl)carbonyl]phenyl}(3-oxa-8-azabicyclo[3.2.1]oct-8-yl)methanone] | 1.98 | 0.00481 | – | 0.00688 |
